Source: patent US11319347B2, “Peptide compound and method for producing same, composition for screening use, and method for selecting peptide compound” (FUJIFILM Corporation, priority 2017, dated 2022)
Starred links: 1 amine or outer side, 2 acyl side, 3 side chain; linkers in the order of their positions; H or OH if unused. Positions of bridges follow the written chain, without caps; N, C: chain ends. Non-standard residues stand in square brackets, D forms with d. Residues, ends and D or L forms follow the SMILES beside them. 2Pal(6-thiazolin-2-yl-4R-CO) = O=C([C@H](Cc1cccc(C2=N[C@H](C(=O)[*:3])CS2)n1)N[*:1])[*:2]; dCha = N[C@H](CC1CCCCC1)C(=O)O; Nle = CCCC[C@H](N)C(=O)O

assay: Membrane permeability of synthesized cyclic peptides by PAMPA (Measurement Method A: 1 μmol/L; Method B: 10 μmol/L); type: in vitro ADME; details: Measurement method A, 25° C., 4 hours
Description: Evaluation of membrane permeability of synthesized cyclic peptide by PAMPA method In order to compare and examine the membrane permeability of the synthesized cyclic peptide, parallel artificial membrane permeability assay (PAMPA) was carried out.
An artificial phospholipid membrane was produced by adding 5 μL of a phospholipid organic solvent solution consisting of L-α-phosphatidylcholine (Avanti Polar Lipids, Inc., Cat. 840051P, 1.67%), 1,2-dioleoyl-sn-glycero-3-phospho-L-serine (Avanti Polar Lipids, Inc., Cat. 840035P, 0.33%), and n-dodecane special grade (Wako Pure Chemical Industries, Ltd., 047-21612)/1-octanol reagent special grade (Kanto Chemical Co., Inc., Cat. 31013-08)=10:1 to Filter Plate (Merck Millipore Corporation, Cat. MAIPN4550).
475 μL of 50 mmol/L potassium phosphate buffer (KPB, pH 7.4 or pH 6.5) was added to 25 μL of a DMSO solution containing the compound at a concentration of 20 μmol/L, so that the compound was diluted to a final concentration of 1 μmol/L. 300 μL of the compound solution was added to the lower side (donor side) of PAMPA 96-well plate (Filter Plate (Merck Millipore Corporation, Cat. MAIPN4550)) with an artificial phospholipid membrane being interposed therebetween. 200 μL of 5% DMSO KPB (pH 7.4) was added to the upper side (acceptor side) with the artificial phospholipid membrane being interposed therebetween. A permeation test through an artificial phospholipid membrane was carried out at 25° C. for 4 hours. The compound concentration in the solution in the donor plate and the acceptor plate was measured by LC/MS/MS, and the membrane permeation rate (Pe) of the compound was calculated from the following formula, assuming that C0 is an initial compound concentration in donor solution, t is a test time, A is a membrane filter area=0.3 cm^2, VD is a donor solution amount=300 μL, VA is an acceptor solution amount=200 μL, and CD(t) is a compound concentration in donor solution at time t, CA(t) is a compound concentration in acceptor solution at time t, and Cequilibrium=[CD(t)*VD+CA(t)*VA]/(VD+VA).
475 μL of 50 mmol/L potassium phosphate buffer (KPB, pH 7.4 or pH 6.5) was added to 25 μL of a DMSO solution containing the compound at a concentration of […], so that the compound was diluted to a final concentration of 10 μmol/L. The compound solution was added 300 μL each to the lower side (donor side) of an artificial phospholipid membrane of PAMPA 96-well plate (Filter Plate (Merck Millipore Corporation, Cat. MAIPN4550)). 200 μL of 5% DMSO KPB (pH 7.4) was added to the upper side (acceptor side) with the artificial phospholipid membrane being interposed therebetween. A permeation test through an artificial phospholipid membrane was carried out at 25° C. for 4 hours. The compound concentration in the solution in the donor plate and the acceptor plate was measured by LC/MS/MS, and the membrane permeation rate (Pe) of the compound was calculated from the following formula, assuming that Co is an initial compound concentration in donor solution, t is a test time, A is a membrane filter area=0.3 cm^2, VD is a donor solution amount=300 μL, VA is an acceptor solution amount=200 μL, and CD(t) is a compound concentration in donor solution at time t, CA(t) is a compound concentration in acceptor solution at time t, and Cequilibrium=[CD(t)*VD+CA(t)*VA]/(VD+VA).
The membrane permeability (Pe(10^−6 cm/s)) obtained by this method is described in the following table.
(§1) Evaluation standards are as follows.

Row | Compound | Pe(10^−6 cm/sec)
1 | C[C@@H]1NC(=O)CSC[C@@H](C(N)=O)NC(=O)[C@@H](Cc2ccccc2)NC(=O)CNC(=O)CNC(=O)[C@@H](Cc2ccc(O)cc2)NC1=O [7-2] ({CH2CO}-A[dY]GG[dF]C-NH2; thioether N-6) | + (0.01<Pe (10^−6 cm/s)≤0.2)
2 | N=C(N)NCCC[C@@H]1NC(=O)[C@H](Cc2c[nH]c3ccccc23)NC(=O)[C@@H](CC2CCCCC2)NC(=O)[C@@H]2CCCN2C(=O)[C@@H]2CSC(=N2)c2sccc2C[C@@H](C(N)=O)NC1=O [2-17] | +++ (0.5<Pe (10^−6 cm/s))
3 | CC(C)C[C@@H]1NC(=O)[C@@H](C(C)C)NC(=O)[C@H](C)NC(=O)CSC[C@@H](C(N)=O)NC(=O)[C@@H](CCC(=O)O)NC(=O)[C@@H](Cc2c[nH]c3ccccc23)NC1=O [7-4] ({CH2CO}-A[dV]L[dW][dE]C-NH2; thioether N-6) | + (0.01<Pe (10^−6 cm/s)≤0.2)
4 | CCCC[C@@H]1NC(=O)[C@H](CCCCN)NC(=O)C(CC(C)C)NC(=O)[C@H](CC(C)C)NC(=O)[C@@H]2CSC(=N2)c2cc(cs2)C[C@@H](C(N)=O)NC(=O)C(Cc2ccccc2)NC(=O)[C@H](CO)NC(=O)[C@H](C)NC(=O)[C@@H]2CCCN2C1=O (stereo partly drawn) [4-9] | + (0.01<Pe (10^−6 cm/s)≤0.2)
5 | N=C(N)NCCC[C@@H]1NC(=O)[C@H](Cc2c[nH]c3ccccc23)NC(=O)[C@@H](CC2CCCCC2)NC(=O)[C@@H]2CCCN2C(=O)[C@@H]2CSC(=N2)C2=Cc3ccc(cc3S2)C[C@@H](C(N)=O)NC1=O [2-2] | +++ (0.5<Pe (10^−6 cm/s))
6 | C[C@@H]1NC(=O)CSC[C@@H](C(N)=O)NC(=O)[C@H]([C@@H](C)O)NC(=O)[C@H](CCCCN)NC(=O)[C@@H](Cc2c[nH]c3ccccc23)NC(=O)[C@H](Cc2ccccc2)NC1=O [7-3] ({CH2CO}-AF[dW]KTC-NH2; thioether N-6) | − (0.01≤Pe (10^−6 cm/s))
7 | N=C(N)NCCC[C@@H]1NC(=O)[C@H](Cc2c[nH]c3ccccc23)NC(=O)[C@@H](CC2CCCCC2)NC(=O)[C@@H]2CCCN2C(=O)[C@@H]2CSC(=N2)c2cnc3cc(ccc3c2)C[C@@H](C(N)=O)NC1=O [2-4] | +++ (0.5<Pe (10^−6 cm/s))
8 | C[C@@H]1NC(=O)CC[C@@H](C(N)=O)NC(=O)[C@@H](Cc2ccccc2)NC(=O)CNC(=O)CNC(=O)[C@@H](Cc2ccc(O)cc2)NC1=O [8-2] (A[dY]GG[dF]E-NH2; lactam N-6) | + (0.01<Pe (10^−6 cm/s)≤0.2)

Second part, the compound after the results:

Row | Pe(10^−6 cm/sec) | Compound
9 | +++ (0.5<Pe (10^−6 cm/s)) | Cn1ccc2cc3c(nc21)C1=N[C@@H](CS1)C(=O)N1CCC[C@H]1C(=O)N[C@H](CC1CCCCC1)C(=O)N[C@@H](Cc1c[nH]c2ccccc12)C(=O)N[C@@H](CCCNC(=N)N)C(=O)N[C@H](C(N)=O)C3 [a-1-4]
10 | +++ (0.5<Pe (10^−6 cm/s)) | N=C(N)NCCC[C@@H]1NC(=O)[C@H](Cc2c[nH]c3ccccc23)NC(=O)[C@@H](CC2CCCCC2)NC(=O)[C@@H]2CCCN2C(=O)[C@@H]2CSC(=N2)c2cn3c(cccc3n2)C[C@@H](C(N)=O)NC1=O [a-1-12]
11 | +++ (0.5<Pe (10^−6 cm/s)) | N=C(N)NCCC[C@@H]1NC(=O)[C@H](Cc2c[nH]c3ccccc23)NC(=O)[C@@H](CC2CCCCC2)NC(=O)[C@@H]2CCCN2C(=O)[C@@H]2CSC(=N2)c2ccc(s2)C(=O)NCCOCCOCCOCCOc2ccc(cc2)C[C@@H](C(N)=O)NC1=O [a-1-9]
12 | Below the limit | CCCC[C@@H]1NC(=O)[C@H](CCCCN)NC(=O)[C@H](CC(C)C)NC(=O)[C@H](CC(C)C)NC(=O)[C@H](C)NC(=O)CSC[C@@H](C(N)=O)NC(=O)[C@H](Cc2ccccc2)NC(=O)[C@H](C)NC(=O)[C@H](C)NC(=O)[C@@H]2CCCN2C1=O [7-5] ({CH2CO}-ALLK[Nle]PAAFC-NH2; thioether N-10)
13 | +++ (0.5<Pe (10^−6 cm/s)) | N=C(N)NCCC[C@@H]1NC(=O)[C@H](Cc2c[nH]c3ccccc23)NC(=O)[C@@H](CC2CCCCC2)NC(=O)[C@@H]2CCCN2C(=O)[C@@H]2CSC(=N2)c2ccc(cn2)OCCOCCOCCOCCOc2ccc(cc2)C[C@@H](C(N)=O)NC1=O [a-1-8]
14 | ++ (0.2<Pe (10^−6 cm/s)≤0.5) | N=C(N)NCCC[C@@H]1NC(=O)[C@H](Cc2c[nH]c3ccccc23)NC(=O)[C@@H](CC2CCCCC2)NC(=O)[C@@H]2CCCN2C(=O)[C@@H]2CSC(=N2)c2cn(nn2)C[C@@H](C(N)=O)NC1=O [a-1-2]
15 | +++ (0.5<Pe (10^−6 cm/s)) | N=C(N)NCCC[C@@H]1NC(=O)[C@H](Cc2c[nH]c3ccccc23)NC(=O)[C@@H](CC2CCCCC2)NC(=O)[C@@H]2CCCN2C(=O)[C@@H]2CSC(=N2)c2coc(n2)-c2csc(n2)C[C@@H](C(N)=O)NC1=O [a-1-10]
16 | − (0.01≤Pe (10^−6 cm/s)) | C[C@@H]1NC(=O)Cn2cc(nn2)C[C@@H](C(N)=O)NC(=O)[C@H]([C@@H](C)O)NC(=O)[C@H](CCCCN)NC(=O)[C@@H](Cc2c[nH]c3ccccc23)NC(=O)[C@H](Cc2ccccc2)NC1=O [10-4]
17 | Below the limit | CCCC[C@@H]1NC(=O)[C@H](CCCCN)NC(=O)[C@H](CC(C)C)NC(=O)[C@H](CC(C)C)NC(=O)[C@@H](NC(C)=O)CSSC[C@@H](C(N)=O)NC(=O)[C@H](Cc2ccccc2)NC(=O)[C@H](C)NC(=O)[C@H](C)NC(=O)[C@@H]2CCCN2C1=O [9-4] (Ac-CLLK[Nle]PAAFC-NH2; disulfide 1-10)

same assay, conditions: Measurement method B (10 μmol/L), 25° C., 4 hours

Row | Pe(10^−6 cm/sec) | Compound
18 | +++ (0.5<Pe (10^−6 cm/s)) | N=C(N)NCCC[C@@H]1NC(=O)[C@H](Cc2c[nH]c3ccccc23)NC(=O)[C@@H](CC2CCCCC2)NC(=O)[C@@H]2CCCN2C(=O)[C@@H]2CSC(=N2)c2cn3cc(ncc3n2)-c2cccc(c2)C[C@@H](C(N)=O)NC1=O [a-1-14]
19 | ++ (0.2<Pe (10^−6 cm/s)≤0.5) | N=C(N)NCCC[C@@H]1NC(=O)[C@H](Cc2c[nH]c3ccccc23)NC(=O)[C@@H](CC2CCCCC2)NC(=O)[C@@H]2CCCN2C(=O)[C@@H]2CSC(=N2)c2cn(cn2)-c2ccc(cc2)C[C@@H](C(N)=O)NC1=O [a-1-5]

assay: Metabolic stability of cyclic peptides in human liver microsomes (HLM residual rate); type: in vitro ADME; details: 1 μmol/L, human liver microsomes 0.5 mg protein/mL, 37° C., 20 minutes, NADPH and UDPGA
Description: Test of metabolic stability of cyclic peptide in human liver microsome
An experiment using human liver microsomes (HLMs) was carried out in order to compare and examine the metabolic stability of the synthesized cyclic peptides.
The compound with a final concentration of 1 μmol/L was incubated in human liver microsomes (BD Cat #452117) prepared to a final concentration of 0.5 mg protein/mL using 100 mmol/L phosphate buffer (pH 7.4) at 37° C. for 20 minutes in the presence of reduced nicotinamide adenine dinucleotide phosphate (NADPH) and uridine 5′-diphosphate-α-D-glucuronic acid (UDPGA). Deproteinization treatment with acetonitrile was carried out, the amount of unaltered substance remaining was quantified using LC/MS/MS, and the residual rate (%) in 20 minutes was calculated. The HLM residual rate (%) obtained by this method is described in the following table.
as §1

Row | HLM residual rate | Compound
20 | +++ (60%<HLM residual rate (%)) | N=C(N)NCCC[C@@H]1NC(=O)[C@H](Cc2c[nH]c3ccccc23)NC(=O)[C@@H](CC2CCCCC2)NC(=O)[C@@H]2CCCN2C(=O)[C@@H]2CSC(=N2)c2cccc(n2)C[C@@H](C(N)=O)NC1=O [2-9] (P[dCha]WR[2Pal(6-thiazolin-2-yl-4R-CO)]-NH2; lactam N-5)
21 | ++ (40%<HLM residual rate (%)≤60%) | N=C(N)NCCC[C@@H]1NC(=O)[C@H](Cc2c[nH]c3ccccc23)NC(=O)[C@@H](CC2CCCCC2)NC(=O)[C@@H]2CCCN2C(=O)[C@@H]2CSC(=N2)c2nc(cs2)C[C@@H](C(N)=O)NC1=O [2-18]
22 | +++ (60%<HLM residual rate (%)) | N=C(N)NCCC[C@@H]1NC(=O)[C@H](Cc2c[nH]c3ccccc23)NC(=O)[C@@H](CC2CCCCC2)NC(=O)[C@@H]2CCCN2C(=O)[C@@H]2CSC(=N2)c2cc(ccn2)C[C@@H](C(N)=O)NC1=O [2-8]
23 | +++ (60%<HLM residual rate (%)) | N=C(N)NCCC[C@@H]1NC(=O)[C@H](Cc2c[nH]c3ccccc23)NC(=O)[C@@H](CC2CCCCC2)NC(=O)[C@@H]2CCCN2C(=O)[C@@H]2CSC(=N2)c2cnc(cn2)C[C@@H](C(N)=O)NC1=O [2-13]
24 | +++ (60%<HLM residual rate (%)) | N=C(N)NCCC[C@@H]1NC(=O)[C@H](Cc2c[nH]c3ccccc23)NC(=O)[C@@H](CC2CCCCC2)NC(=O)[C@@H]2CCCN2C(=O)[C@@H]2CSC(=N2)c2cncc(n2)C[C@@H](C(N)=O)NC1=O [2-14]
